ChEMBL document CHEMBL5696441 (Nat Chem Biol, 2011)

How the values were obtained:
[1] = target: Calcium/calmodulin-dependent protein kinase type II subunit beta (Homo sapiens) (UniProt Q13554); test: Inhibition of CAMK2B (unknown origin) assessed as remaining activity at 1 uM by Kinome scan method relative to control
[2] = target: Cyclin-dependent kinase-like 2 (Homo sapiens) (UniProt Q92772); test: Inhibition of CDKL2 (unknown origin) assessed as remaining activity at 1 uM by Kinome scan method relative to control
[3] = target: Dual specificity protein kinase CLK2 (Homo sapiens) (UniProt P49760); test: Inhibition of CLK2 (unknown origin) assessed as remaining activity at 1 uM by Kinome scan method relative to control
[4] = target: Casein kinase I isoform alpha-like (Homo sapiens) (UniProt Q8N752); test: Inhibition of CSNK1A1L (unknown origin) assessed as remaining activity at 1 uM by Kinome scan method relative to control
[5] = target: Ephrin type-A receptor 5 (Homo sapiens) (UniProt P54756); test: Inhibition of EPHA5 (unknown origin) assessed as remaining activity at 1 uM by Kinome scan method relative to control
[6] = target: Tyrosine-protein kinase Fes/Fps (Homo sapiens) (UniProt P07332); test: Inhibition of FES (unknown origin) assessed as remaining activity at 1 uM by Kinome scan method relative to control
[7] = target: Dual specificity mitogen-activated protein kinase kinase 1 (Homo sapiens) (UniProt Q02750); test: Inhibition of MEK1 (unknown origin) assessed as remaining activity at 1 uM by Kinome scan method relative to control
[8] = target: Serine/threonine-protein kinase D2 (Homo sapiens) (UniProt Q9BZL6); test: Inhibition of PRKD2 (unknown origin) assessed as remaining activity at 1 uM by Kinome scan method relative to control
[9] = target: Receptor-interacting serine/threonine-protein kinase 2 (Homo sapiens) (UniProt O43353); test: Inhibition of RIPK2 (unknown origin) assessed as remaining activity at 1 uM by Kinome scan method relative to control
[10] = target: Ribosomal protein S6 kinase alpha-2 (Homo sapiens) (UniProt Q15349); test: Inhibition of N-terminal kinase domain RPS6KA2 (unknown origin) assessed as remaining activity at 1 uM by Kinome scan method relative to control
[11] = target: Serine/threonine-protein kinase ULK1 (Homo sapiens) (UniProt O75385); test: Inhibition of ULK1 (unknown origin) assessed as remaining activity at 1 uM by Kinome scan method relative to control
[12] = target: Tyrosine-protein kinase ZAP-70 (Homo sapiens) (UniProt P43403); test: Inhibition of ZAP70 (unknown origin) assessed as remaining activity at 1 uM by Kinome scan method relative to control
[13] = target: Casein kinase II subunit alpha (Homo sapiens) (UniProt P68400); test: Inhibition of human CK2alpha1 assessed as residual activity at 1 uM using casein as substrate in presence of 33P-ATP by ProQinase assay relative to control
[14] = target: Macrophage colony-stimulating factor 1 receptor (Homo sapiens) (UniProt P07333); test: Inhibition of human CSF1R assessed as residual activity at 1 uM using polyEY as substrate in presence of 33P-ATP by ProQinase assay relative to control
[15] = test system: Epidermal growth factor receptor (Homo sapiens), P00533 [UNDEFINED MUTATION]; test: Inhibition of human EGFR d746-750 mutant assessed as residual activity at 1 uM using PolyEY as substrate in presence of 33P-ATP by ProQinase assay relative to control
[16] = target: Tyrosine-protein kinase Fes/Fps (Homo sapiens) (UniProt P07332); test: Inhibition of human FES assessed as residual activity at 1 uM using polyEY as substrate in presence of 33P-ATP by ProQinase assay relative to control
[17] = target: Beta-adrenergic receptor kinase 1 (Homo sapiens) (UniProt P25098); test: Inhibition of human GRK2 assessed as residual activity at 1 uM using casein as substrate in presence of 33P-ATP by ProQinase assay relative to control
[18] = target: Inhibitor of nuclear factor kappa-B kinase subunit beta (Homo sapiens) (UniProt O14920); test: Inhibition of human IKKbeta assessed as residual activity at 1 uM using RBER-CHKtide as substrate in presence of 33P-ATP by ProQinase assay relative to control
[19] = test system: Hepatocyte growth factor receptor (Homo sapiens), P08581 [Y1230C]; test: Inhibition of human MET Y1230C mutant assessed as residual activity at 1 uM using poly(Ala,Glu,Lys,Tyr)6:2:5:1 as substrate in presence of 33P-ATP by ProQinase assay relative to control
[20] = test system: Hepatocyte growth factor receptor (Homo sapiens), P08581 [Y1230D]; test: Inhibition of human MET Y1230D mutant assessed as residual activity at 1 uM using poly(Ala,Glu,Lys,Tyr)6:2:5:1 as substrate in presence of 33P-ATP by ProQinase assay relative to control
[21] = test system: Proto-oncogene tyrosine-protein kinase receptor Ret (Homo sapiens), P07949 [Y791F]; test: Inhibition of human RET Y791F mutant assessed as residual activity at 1 uM using polyEY as substrate in presence of 33P-ATP by ProQinase assay relative to control
[22] = target: Ribosomal protein S6 kinase alpha-3 (Homo sapiens) (UniProt P51812); test: Inhibition of human RPS6KA3 assessed as residual activity at 1 uM using bio-4xCHKT as substrate in presence of 33P-ATP by ProQinase assay relative to control
[23] = target: Tyrosine-protein kinase Srms (Homo sapiens) (UniProt Q9H3Y6); test: Inhibition of human SRMS assessed as residual activity at 1 uM using PolyEY as substrate in presence of 33P-ATP by ProQinase assay relative to control
[24] = target: SRSF protein kinase 3 (Homo sapiens) (UniProt Q9UPE1); test: Inhibition of human STK23 assessed as residual activity at 1 uM using RBER-CHKtide as substrate in presence of 33P-ATP by ProQinase assay relative to control
[25] = target: Serine/threonine-protein kinase TAO2 (Homo sapiens) (UniProt Q9UL54); test: Inhibition of human TAOK2 assessed as residual activity at 1 uM using casein as substrate in presence of 33P-ATP by ProQinase assay relative to control
[26] = target: Dual specificity protein kinase TTK (Homo sapiens) (UniProt P33981); test: Inhibition of human TTK assessed as residual activity at 1 uM using RBER-CHKtide as substrate in presence of 33P-ATP by ProQinase assay relative to control
[27] = target: Tyrosine-protein kinase ZAP-70 (Homo sapiens) (UniProt P43403); test: Inhibition of human ZAP70 assessed as residual activity at 1 uM using polyEY as substrate in presence of 33P-ATP by ProQinase assay relative to control

Tyrosine-protein kinase ZAP-70 (Homo sapiens), sequence (P43403 whole entry): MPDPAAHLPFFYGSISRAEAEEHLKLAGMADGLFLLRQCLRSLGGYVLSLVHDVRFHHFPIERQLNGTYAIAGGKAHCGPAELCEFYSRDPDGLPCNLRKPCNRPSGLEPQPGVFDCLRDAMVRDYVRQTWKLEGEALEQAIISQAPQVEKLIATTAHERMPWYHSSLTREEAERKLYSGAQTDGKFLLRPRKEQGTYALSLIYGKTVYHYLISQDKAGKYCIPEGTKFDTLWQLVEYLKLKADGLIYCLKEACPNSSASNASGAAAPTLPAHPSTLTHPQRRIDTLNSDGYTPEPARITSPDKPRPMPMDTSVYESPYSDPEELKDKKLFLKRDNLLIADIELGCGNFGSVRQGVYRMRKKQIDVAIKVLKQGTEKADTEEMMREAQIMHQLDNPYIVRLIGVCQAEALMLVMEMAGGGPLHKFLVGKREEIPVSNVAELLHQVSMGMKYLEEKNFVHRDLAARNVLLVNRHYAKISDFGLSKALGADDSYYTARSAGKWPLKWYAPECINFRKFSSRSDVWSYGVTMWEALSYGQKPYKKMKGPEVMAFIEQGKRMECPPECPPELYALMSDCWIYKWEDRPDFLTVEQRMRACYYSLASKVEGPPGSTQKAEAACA
Tyrosine-protein kinase Fes/Fps (Homo sapiens), sequence (P07332 whole entry): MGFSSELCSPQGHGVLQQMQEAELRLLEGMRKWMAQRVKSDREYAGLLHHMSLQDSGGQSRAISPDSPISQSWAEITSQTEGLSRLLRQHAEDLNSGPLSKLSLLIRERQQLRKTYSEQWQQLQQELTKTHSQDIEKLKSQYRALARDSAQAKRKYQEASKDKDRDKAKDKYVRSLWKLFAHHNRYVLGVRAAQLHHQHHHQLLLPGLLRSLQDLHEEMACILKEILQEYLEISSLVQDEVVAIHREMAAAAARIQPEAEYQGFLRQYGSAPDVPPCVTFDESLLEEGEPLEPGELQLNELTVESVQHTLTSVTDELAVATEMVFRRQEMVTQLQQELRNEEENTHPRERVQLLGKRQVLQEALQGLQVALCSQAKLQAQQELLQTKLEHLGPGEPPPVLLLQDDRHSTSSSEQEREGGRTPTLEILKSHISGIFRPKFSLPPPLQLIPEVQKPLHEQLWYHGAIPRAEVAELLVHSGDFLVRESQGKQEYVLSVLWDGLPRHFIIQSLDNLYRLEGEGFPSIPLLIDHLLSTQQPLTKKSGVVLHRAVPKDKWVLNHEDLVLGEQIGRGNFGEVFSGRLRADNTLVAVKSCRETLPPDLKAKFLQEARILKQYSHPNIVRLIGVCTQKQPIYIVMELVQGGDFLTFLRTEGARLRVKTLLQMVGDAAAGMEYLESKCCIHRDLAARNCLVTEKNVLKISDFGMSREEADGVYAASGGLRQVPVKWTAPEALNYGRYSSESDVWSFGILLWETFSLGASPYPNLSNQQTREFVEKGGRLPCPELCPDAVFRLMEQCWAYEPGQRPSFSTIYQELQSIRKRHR
Dual specificity protein kinase CLK2 (Homo sapiens), sequence (P49760 whole entry, looked up, canonical isoform): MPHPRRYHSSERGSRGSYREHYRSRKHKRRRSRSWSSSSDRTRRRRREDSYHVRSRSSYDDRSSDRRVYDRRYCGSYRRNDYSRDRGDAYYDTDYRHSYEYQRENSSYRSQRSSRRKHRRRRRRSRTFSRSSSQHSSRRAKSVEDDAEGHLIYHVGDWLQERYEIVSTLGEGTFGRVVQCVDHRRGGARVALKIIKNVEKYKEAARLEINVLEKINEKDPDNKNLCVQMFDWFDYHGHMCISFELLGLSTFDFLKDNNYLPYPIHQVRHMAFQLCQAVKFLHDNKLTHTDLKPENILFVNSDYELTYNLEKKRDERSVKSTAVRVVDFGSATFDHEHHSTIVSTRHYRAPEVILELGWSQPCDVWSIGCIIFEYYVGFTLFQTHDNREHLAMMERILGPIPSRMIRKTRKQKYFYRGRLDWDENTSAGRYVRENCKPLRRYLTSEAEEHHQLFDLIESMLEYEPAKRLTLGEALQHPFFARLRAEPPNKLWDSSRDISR
Casein kinase I isoform alpha-like (Homo sapiens), sequence (Q8N752 whole entry, canonical isoform): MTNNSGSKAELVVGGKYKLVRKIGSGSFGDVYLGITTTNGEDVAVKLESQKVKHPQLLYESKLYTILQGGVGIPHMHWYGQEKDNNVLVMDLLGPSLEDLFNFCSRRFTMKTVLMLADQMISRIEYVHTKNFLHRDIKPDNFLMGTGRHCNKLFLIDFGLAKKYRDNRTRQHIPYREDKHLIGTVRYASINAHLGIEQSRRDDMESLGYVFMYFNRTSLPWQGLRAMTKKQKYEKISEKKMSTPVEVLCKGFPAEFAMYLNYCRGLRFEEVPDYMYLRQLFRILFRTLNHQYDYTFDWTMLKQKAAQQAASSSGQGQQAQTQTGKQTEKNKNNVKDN
Tyrosine-protein kinase Srms (Homo sapiens), sequence (Q9H3Y6 whole entry): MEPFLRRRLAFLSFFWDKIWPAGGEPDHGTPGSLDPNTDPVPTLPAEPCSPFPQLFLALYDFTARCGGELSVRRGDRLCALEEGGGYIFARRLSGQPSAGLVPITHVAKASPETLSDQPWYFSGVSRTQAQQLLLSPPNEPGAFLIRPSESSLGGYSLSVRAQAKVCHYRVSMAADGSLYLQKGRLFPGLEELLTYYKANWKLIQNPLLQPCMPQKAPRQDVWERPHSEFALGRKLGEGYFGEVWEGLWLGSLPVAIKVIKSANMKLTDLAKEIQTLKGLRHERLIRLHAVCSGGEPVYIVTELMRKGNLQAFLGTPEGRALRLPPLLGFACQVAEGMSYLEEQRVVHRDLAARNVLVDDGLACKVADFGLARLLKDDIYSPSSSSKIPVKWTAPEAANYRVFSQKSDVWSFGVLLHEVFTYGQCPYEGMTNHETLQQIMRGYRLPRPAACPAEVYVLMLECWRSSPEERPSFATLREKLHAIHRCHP
Proto-oncogene tyrosine-protein kinase receptor Ret (Homo sapiens), P07949 [Y791F], sequence (P07949 whole entry Y791F): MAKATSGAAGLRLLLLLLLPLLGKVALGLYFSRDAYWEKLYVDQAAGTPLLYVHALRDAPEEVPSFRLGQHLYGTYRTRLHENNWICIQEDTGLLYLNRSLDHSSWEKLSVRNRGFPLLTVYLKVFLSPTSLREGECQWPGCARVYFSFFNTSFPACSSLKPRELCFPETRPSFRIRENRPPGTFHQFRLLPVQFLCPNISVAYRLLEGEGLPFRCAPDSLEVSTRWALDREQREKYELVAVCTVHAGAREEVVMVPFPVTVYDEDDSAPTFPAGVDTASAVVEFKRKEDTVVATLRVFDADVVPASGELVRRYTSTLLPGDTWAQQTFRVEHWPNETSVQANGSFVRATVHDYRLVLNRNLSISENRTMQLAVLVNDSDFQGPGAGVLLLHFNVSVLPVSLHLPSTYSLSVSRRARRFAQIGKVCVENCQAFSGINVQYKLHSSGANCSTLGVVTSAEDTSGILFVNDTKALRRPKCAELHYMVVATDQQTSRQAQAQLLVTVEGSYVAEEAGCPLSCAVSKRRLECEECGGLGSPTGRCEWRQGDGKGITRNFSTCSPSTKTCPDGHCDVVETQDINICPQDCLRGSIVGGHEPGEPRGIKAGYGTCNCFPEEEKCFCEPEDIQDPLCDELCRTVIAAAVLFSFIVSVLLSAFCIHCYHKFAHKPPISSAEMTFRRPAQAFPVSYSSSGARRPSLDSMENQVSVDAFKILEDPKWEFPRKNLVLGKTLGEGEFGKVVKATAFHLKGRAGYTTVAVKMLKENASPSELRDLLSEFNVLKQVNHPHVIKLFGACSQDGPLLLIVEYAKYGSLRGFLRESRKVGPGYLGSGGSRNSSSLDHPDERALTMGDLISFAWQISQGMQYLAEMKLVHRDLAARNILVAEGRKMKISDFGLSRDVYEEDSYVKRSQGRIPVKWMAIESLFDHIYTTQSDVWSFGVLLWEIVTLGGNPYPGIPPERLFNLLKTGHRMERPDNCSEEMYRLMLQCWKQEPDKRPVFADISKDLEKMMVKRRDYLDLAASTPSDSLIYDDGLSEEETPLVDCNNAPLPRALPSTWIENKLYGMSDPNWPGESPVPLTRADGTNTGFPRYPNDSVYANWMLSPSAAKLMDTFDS
Beta-adrenergic receptor kinase 1 (Homo sapiens), sequence (P25098 whole entry): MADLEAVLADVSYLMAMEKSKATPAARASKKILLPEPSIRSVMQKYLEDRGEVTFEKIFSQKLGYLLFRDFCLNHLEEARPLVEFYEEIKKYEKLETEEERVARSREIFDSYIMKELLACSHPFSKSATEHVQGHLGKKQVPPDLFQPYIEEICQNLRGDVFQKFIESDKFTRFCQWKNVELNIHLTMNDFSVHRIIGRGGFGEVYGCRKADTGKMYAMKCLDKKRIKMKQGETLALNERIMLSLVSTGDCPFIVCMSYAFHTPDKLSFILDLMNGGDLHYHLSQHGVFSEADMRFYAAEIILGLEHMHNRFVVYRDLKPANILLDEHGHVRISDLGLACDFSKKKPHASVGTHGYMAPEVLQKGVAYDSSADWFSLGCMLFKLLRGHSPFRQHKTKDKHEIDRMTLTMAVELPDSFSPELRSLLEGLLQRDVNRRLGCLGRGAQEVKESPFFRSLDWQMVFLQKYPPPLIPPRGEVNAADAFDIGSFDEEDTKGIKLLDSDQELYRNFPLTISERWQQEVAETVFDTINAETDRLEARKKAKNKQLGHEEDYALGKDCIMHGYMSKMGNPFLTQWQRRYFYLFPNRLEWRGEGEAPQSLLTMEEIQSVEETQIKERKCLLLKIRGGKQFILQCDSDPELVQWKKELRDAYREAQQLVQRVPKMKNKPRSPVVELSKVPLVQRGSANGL
Dual specificity mitogen-activated protein kinase kinase 1 (Homo sapiens), sequence (Q02750 whole entry): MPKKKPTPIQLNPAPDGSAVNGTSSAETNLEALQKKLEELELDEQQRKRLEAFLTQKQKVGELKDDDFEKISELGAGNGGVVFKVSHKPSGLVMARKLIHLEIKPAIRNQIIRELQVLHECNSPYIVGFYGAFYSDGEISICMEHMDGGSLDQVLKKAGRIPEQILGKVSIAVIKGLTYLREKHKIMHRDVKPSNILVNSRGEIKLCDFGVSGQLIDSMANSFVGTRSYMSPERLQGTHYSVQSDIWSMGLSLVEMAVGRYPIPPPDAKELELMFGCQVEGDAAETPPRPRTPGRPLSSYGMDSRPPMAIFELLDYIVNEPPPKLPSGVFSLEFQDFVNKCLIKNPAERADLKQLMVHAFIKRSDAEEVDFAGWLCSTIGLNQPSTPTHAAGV

O=C1c2ccc(Nc3ccc(F)cc3F)cc2CCc2ccc(OC[C@H](O)CO)cc21 [Skepinone-L] showed an Activity [1] of 100%, an Activity [2] of 100% and an Activity [3] of 90%. The Activity [4] was 98%, the Activity [5] was 98% and the Activity [6] was 100%. For the same compound, the Activity [7] was 86%, the Activity [8] was 100% and the Activity [9] was 87%. For the same compound, the Activity [10] was 100%, the Activity [11] was 100% and the Activity [12] was 100%. The Activity [13] was 95%, the Activity [14] was 106% and the Activity [15] was 100%. The Activity [16] was 121%, the Activity [17] was 83% and the Activity [18] was 81%. It also gave an Activity [19] of 97%, an Activity [20] of 95% and an Activity [21] of 141%. It also gave an Activity [22] of 89%, an Activity [23] of 95% and an Activity [24] of 96%. The Activity [25] was 102%, the Activity [26] was 83% and the Activity [27] was 98%.
